This note sets out measurements from the NIST ThermoML archive (doi:10.1021/je300170y).

Structures are written as SMILES. Numbers after ± are expanded uncertainties.

For this data set the following is noted: Crystal 1; Chromatography.

Turning to `O=C(O)[C@H](O)[C@@H](O)C(=O)O` (relative stereo) [(R*,R*)-2,3-dihydroxybutanedioic acid], the Normal melting temperature is 206.00 °C.
In the case of `O=C(O)[C@H](O)[C@@H](O)C(=O)O` [(2R,3R)-2,3-dihydroxybutanedioic acid], the Normal melting temperature amounted to 170.20 ± 1 °C.
